Source: the NIST ThermoML archive (doi:10.1021/je4010678)
± gives the expanded uncertainty stated by the source.

Experiment: xn = mol fraction of the nth substance listed
Settings: 101 kPa, Liquid, Scientific instruments device model 9700

[I-].[K+] [potassium iodide] + C[S+](C)[O-]
electrical conductivity (293.15 K, x1 = 0.0001281): 0.00573 ± 0.0056 S/m | electrical conductivity (293.15 K, x1 = 0.0001586): 0.00687 ± 0.0069 S/m | electrical conductivity (293.15 K, x1 = 0.0003312): 0.0147 ± 0.013 S/m | electrical conductivity (293.15 K, x1 = 0.0006135): 0.0267 ± 0.017 S/m | electrical conductivity (293.15 K, x1 = 0.001095): 0.0457 ± 0.015 S/m | electrical conductivity (293.15 K, x1 = 0.002002): 0.0778 ± 0.014 S/m | electrical conductivity (293.15 K, x1 = 0.005707): 0.183 ± 0.014 S/m | electrical conductivity (293.15 K, x1 = 0.01): 0.348 ± 0.012 S/m | electrical conductivity (293.15 K, x1 = 0.0197): 0.605 ± 0.0071 S/m | electrical conductivity (293.15 K, x1 = 0.04): 0.8279 ± 0.0066 S/m | electrical conductivity (293.15 K, x1 = 0.0499): 0.9283 ± 0.0058 S/m | electrical conductivity (293.15 K, x1 = 0.0707): 0.9369 ± 0.0056 S/m | electrical conductivity (295.15 K, x1 = 0.0001281): 0.00602 ± 0.0058 S/m | electrical conductivity (295.15 K, x1 = 0.0001586): 0.00718 ± 0.0072 S/m | electrical conductivity (295.15 K, x1 = 0.0003312): 0.0153 ± 0.014 S/m | electrical conductivity (295.15 K, x1 = 0.0006135): 0.0279 ± 0.017 S/m | electrical conductivity (295.15 K, x1 = 0.001095): 0.0475 ± 0.015 S/m | electrical conductivity (295.15 K, x1 = 0.002002): 0.0809 ± 0.015 S/m | electrical conductivity (295.15 K, x1 = 0.005707): 0.19 ± 0.014 S/m | electrical conductivity (295.15 K, x1 = 0.01): 0.362 ± 0.012 S/m | electrical conductivity (295.15 K, x1 = 0.0197): 0.632 ± 0.0072 S/m | electrical conductivity (295.15 K, x1 = 0.04): 0.8651 ± 0.0069 S/m | electrical conductivity (295.15 K, x1 = 0.0499): 0.9694 ± 0.0059 S/m | electrical conductivity (295.15 K, x1 = 0.0707): 0.9785 ± 0.0059 S/m | electrical conductivity (297.15 K, x1 = 0.0001281): 0.0063 ± 0.006 S/m | electrical conductivity (297.15 K, x1 = 0.0001586): 0.00749 ± 0.0075 S/m | electrical conductivity (297.15 K, x1 = 0.0003312): 0.0159 ± 0.015 S/m | electrical conductivity (297.15 K, x1 = 0.0006135): 0.0291 ± 0.018 S/m | electrical conductivity (297.15 K, x1 = 0.001095): 0.0493 ± 0.016 S/m | electrical conductivity (297.15 K, x1 = 0.002002): 0.0841 ± 0.015 S/m | electrical conductivity (297.15 K, x1 = 0.005707): 0.198 ± 0.015 S/m | electrical conductivity (297.15 K, x1 = 0.01): 0.377 ± 0.013 S/m | electrical conductivity (297.15 K, x1 = 0.0197): 0.659 ± 0.0075 S/m | electrical conductivity (297.15 K, x1 = 0.04): 0.9006 ± 0.0072 S/m | electrical conductivity (297.15 K, x1 = 0.0499): 1.013 ± 0.006 S/m | electrical conductivity (297.15 K, x1 = 0.0707): 1.023 ± 0.006 S/m | electrical conductivity (299.15 K, x1 = 0.0001281): 0.00656 ± 0.0063 S/m | electrical conductivity (299.15 K, x1 = 0.0001586): 0.00782 ± 0.0078 S/m | electrical conductivity (299.15 K, x1 = 0.0003312): 0.0165 ± 0.015 S/m | electrical conductivity (299.15 K, x1 = 0.0006135): 0.0303 ± 0.018 S/m | electrical conductivity (299.15 K, x1 = 0.001095): 0.0511 ± 0.016 S/m | electrical conductivity (299.15 K, x1 = 0.002002): 0.0872 ± 0.016 S/m | electrical conductivity (299.15 K, x1 = 0.005707): 0.205 ± 0.015 S/m | electrical conductivity (299.15 K, x1 = 0.01): 0.392 ± 0.013 S/m | electrical conductivity (299.15 K, x1 = 0.0197): 0.686 ± 0.0078 S/m | electrical conductivity (299.15 K, x1 = 0.04): 0.9366 ± 0.0074 S/m | electrical conductivity (299.15 K, x1 = 0.0499): 1.051 ± 0.006 S/m | electrical conductivity (299.15 K, x1 = 0.0707): 1.067 ± 0.006 S/m | electrical conductivity (301.15 K, x1 = 0.0001281): 0.00683 ± 0.0065 S/m | electrical conductivity (301.15 K, x1 = 0.0001586): 0.00814 ± 0.0081 S/m | electrical conductivity (301.15 K, x1 = 0.0003312): 0.0171 ± 0.016 S/m | electrical conductivity (301.15 K, x1 = 0.0006135): 0.0315 ± 0.019 S/m | electrical conductivity (301.15 K, x1 = 0.001095): 0.0529 ± 0.017 S/m | electrical conductivity (301.15 K, x1 = 0.002002): 0.0904 ± 0.017 S/m | electrical conductivity (301.15 K, x1 = 0.005707): 0.213 ± 0.016 S/m | electrical conductivity (301.15 K, x1 = 0.01): 0.406 ± 0.014 S/m | electrical conductivity (301.15 K, x1 = 0.0197): 0.713 ± 0.0081 S/m | electrical conductivity (301.15 K, x1 = 0.04): 0.9737 ± 0.0077 S/m | electrical conductivity (301.15 K, x1 = 0.0499): 1.09 ± 0.007 S/m | electrical conductivity (301.15 K, x1 = 0.0707): 1.112 ± 0.007 S/m | electrical conductivity (303.15 K, x1 = 0.0001281): 0.00711 ± 0.0068 S/m | electrical conductivity (303.15 K, x1 = 0.0001586): 0.00847 ± 0.0084 S/m | electrical conductivity (303.15 K, x1 = 0.0003312): 0.0177 ± 0.016 S/m | electrical conductivity (303.15 K, x1 = 0.0006135): 0.0328 ± 0.02 S/m | electrical conductivity (303.15 K, x1 = 0.001095): 0.0547 ± 0.017 S/m | electrical conductivity (303.15 K, x1 = 0.002002): 0.0936 ± 0.017 S/m | electrical conductivity (303.15 K, x1 = 0.005707): 0.22 ± 0.017 S/m | electrical conductivity (303.15 K, x1 = 0.01): 0.421 ± 0.015 S/m | electrical conductivity (303.15 K, x1 = 0.0197): 0.741 ± 0.0085 S/m | electrical conductivity (303.15 K, x1 = 0.04): 1.011 ± 0.008 S/m | electrical conductivity (303.15 K, x1 = 0.0499): 1.132 ± 0.007 S/m | electrical conductivity (303.15 K, x1 = 0.0707): 1.152 ± 0.007 S/m | electrical conductivity (305.15 K, x1 = 0.0001281): 0.00737 ± 0.007 S/m | electrical conductivity (305.15 K, x1 = 0.0001586): 0.0088 ± 0.0087 S/m | electrical conductivity (305.15 K, x1 = 0.0003312): 0.0184 ± 0.017 S/m | electrical conductivity (305.15 K, x1 = 0.0006135): 0.034 ± 0.02 S/m | electrical conductivity (305.15 K, x1 = 0.001095): 0.0566 ± 0.018 S/m | electrical conductivity (305.15 K, x1 = 0.002002): 0.0969 ± 0.018 S/m | electrical conductivity (305.15 K, x1 = 0.005707): 0.228 ± 0.017 S/m | electrical conductivity (305.15 K, x1 = 0.01): 0.436 ± 0.015 S/m | electrical conductivity (305.15 K, x1 = 0.0197): 0.768 ± 0.0088 S/m | electrical conductivity (305.15 K, x1 = 0.04): 1.047 ± 0.008 S/m | electrical conductivity (305.15 K, x1 = 0.0499): 1.169 ± 0.007 S/m | electrical conductivity (305.15 K, x1 = 0.0707): 1.199 ± 0.007 S/m | electrical conductivity (307.15 K, x1 = 0.0001281): 0.00763 ± 0.0073 S/m | electrical conductivity (307.15 K, x1 = 0.0001586): 0.0092 ± 0.009 S/m | electrical conductivity (307.15 K, x1 = 0.0003312): 0.0191 ± 0.017 S/m | electrical conductivity (307.15 K, x1 = 0.0006135): 0.0352 ± 0.021 S/m | electrical conductivity (307.15 K, x1 = 0.001095): 0.0584 ± 0.019 S/m | electrical conductivity (307.15 K, x1 = 0.002002): 0.1 ± 0.018 S/m | electrical conductivity (307.15 K, x1 = 0.005707): 0.235 ± 0.018 S/m | electrical conductivity (307.15 K, x1 = 0.01): 0.451 ± 0.016 S/m | electrical conductivity (307.15 K, x1 = 0.0197): 0.794 ± 0.0091 S/m | electrical conductivity (307.15 K, x1 = 0.04): 1.083 ± 0.009 S/m | electrical conductivity (307.15 K, x1 = 0.0499): 1.208 ± 0.007 S/m | electrical conductivity (307.15 K, x1 = 0.0707): 1.244 ± 0.008 S/m
